Measured values as given in US20020115728A1, “Compositions and methods for treating cardiovascular disorders” (priority 2000, published 2002).
Marks after values point to notes of the source that are not given here.

System: aortas of apoE−/− mice
Test: Aortic lipids, oxidised lipids and antioxidants by HPLC of aortic homogenates
Format: in vivo
Conditions: 24 weeks
Description: Male C57BL/6J mice, homozygous for the disrupted apoE gene (apoE−/−) were fed standard chow (Lab-Feed, Sydney, Australia) until aged 10 weeks. […] The high fat diet (control and probucol-supplemented) was prepared, according to the specifications of the Harlan Teklad diet TD88137.
After bleeding, mice were gravity-perfused for 5 min with DPBS containing 20 μM BHT and 1 mM EDTA (Buffer A) and aortas removed as described in Letters J M, et al (1999). Briefly, hearts, ascending and descending aortas (past the femoral junction) were excised and carefully cleaned. […] Once cleaned, aortas were separated from the heart taking care to include all aortic material while avoiding heart tissue. To obtain sufficient material for HPLC analysis (i.e., 30-40 mg wet weight tissue) it was necessary to pool 7-8 aortas. Separate pools of aortas were prepared for both groups and then immediately frozen in Buffer A and stored at −80° C. until analyses.
Pooled aortas were snap frozen in liquid nitrogen, pulverised, resuspended in Buffer A, homogenised and then either treated with metaphosphoric acid (for ascorbate) or extracted and the hexane fraction analysed for lipid-soluble antioxidants, cholesterol (C), choleseteryl esters (CE), lipid hydroperoxides (LOOH) and cholesteryl ester hydroxides (CE-OH) by HPLC as described in Methods Enzymol. 1994;233:469-489. LOOH and CE-OH were measured as markers of lipoprotein lipid oxidation, as they are the primary and major oxidation products formed when lipoproteins from apoE−/− mice undergo oxidation. […] All compounds were quantified by peak area comparison with authentic standards, and protein determined.
ApoE−/− mice were fed either a control or probucol-supplemented diet for 24 weeks before aortas and plasma were analysed.

[1] = lipid-standardised oxidised lipids, 1% probucol

**Q.** With `CC(C)(Sc1cc(C(C)(C)C)c(O)c(C(C)(C)C)c1)Sc1cc(C(C)(C)C)c(O)c(C(C)(C)C)c1` [Probucol, probucol] as the molecule, how does the “effect on aortic content of lipid standardised oxidized lipids” value (1% probucol) read?
**A.** did not affect

**Q.** And the “Aorta Ascorbate” value (1% probucol, aorta)?
**A.** 322 ± 320 pmol/mgp

**Q.** And the “Aorta C18:2” value (1% probucol, aorta)?
**A.** 12 ± 6 nmol/mgp

**Q.** And the “Aorta C20:4” value (1% probucol, aorta)?
**A.** 4.0 ± 2 nmol/mgp

**Q.** And the “Aorta CE-OH” value (1% probucol, aorta)?
**A.** 0.17 ± 0.08 nmol/mgp

**Q.** And the “Aorta LOOH” value (1% probucol, aorta)?
**A.** 0.080 nmol/mgp

**Q.** And the “Aorta Total coenzyme Q” value (1% probucol, aorta)?
**A.** 139 ± 57 pmol/mgp

**Q.** What about the “Aorta Ubiquinone-9” value (1% probucol, aorta) of the same molecule?
**A.** 114 ± 47 pmol/mgp

**Q.** And the “Aorta Ubiquinone-10” value (1% probucol, aorta)?
**A.** 25 ± 10 pmol/mgp

**Q.** And the “Aorta α-Tocopherol” value (1% probucol, aorta)?
**A.** 380 pmol/mgp

**Q.** And the “Aorta α-Tocopherylquinone” value (1% probucol, aorta)?
**A.** 30 ± 2 pmol/mgp

**Q.** What about the “Aorta C (cholesterol)” value (high fat diet with 1% probucol, aorta) of the same molecule?
**A.** 173 ± 60 nmol/mgp

**Q.** What about the “Aortic CE-OH/LH (× 10^3)” value [1] of the same molecule?
**A.** 12.5 ± 6.7 × 10^3

**Q.** And the “Aortic LOOH/LH (× 10^3)” value [1]?
**A.** 4.4^a × 10^3

**Q.** And the “decrease of aortic concentration of C vs controls” value (per protein, 1% probucol)?
**A.** 5.6 fold

**Q.** And the “decrease of aortic concentration of total CoQ vs controls” value (per protein, 1% probucol)?
**A.** 2.5 fold

**Q.** What about the “decrease of aortic concentration of vitamin E vs controls” value (per protein, 1% probucol) of the same molecule?
**A.** 2.9 fold
